Results on 21 compounds are retold here after patent US8841312B2, “Fused pyridine, pyrimidine and triazine compounds as cell cycle inhibitors” (Amgen Inc., priority 2007, dated 2014).

One experiment has as its target Cdk6/CyclinD3 (Homo sapiens (Human), UniProt Q00534). Description: Cdk6 kinase inhibition assay with recombinant Cdk6/CyclinD3, Rb substrate, [33P]-ATP filter plate. The class given is biochemical. Particulars: 25 μM ATP, read-out: Cdk 6 IC50. Put shortly: (§1)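 Recombinant Cdk4/CyclinD1 or Cdk6/CyclinD3 phosphorylated Rb protein with [33P]-ATP for 1 h at room temperature. Protein was TCA-precipitated on filter plates and bound radioactivity counted. IC50 by nonlinear regression.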

Another experiment deals with Cdk4/CyclinD1 (Homo sapiens (Human), UniProt P11802). Description: Cdk4 kinase inhibition assay with recombinant Cdk4/CyclinD1, Rb substrate, [33P]-ATP filter plate. In kind it is biochemical. Particulars: 25 μM ATP, read-out: Cdk 4 IC50. Put shortly:
as §1

Sequence of Cdk6/CyclinD3 (Q00534 whole entry): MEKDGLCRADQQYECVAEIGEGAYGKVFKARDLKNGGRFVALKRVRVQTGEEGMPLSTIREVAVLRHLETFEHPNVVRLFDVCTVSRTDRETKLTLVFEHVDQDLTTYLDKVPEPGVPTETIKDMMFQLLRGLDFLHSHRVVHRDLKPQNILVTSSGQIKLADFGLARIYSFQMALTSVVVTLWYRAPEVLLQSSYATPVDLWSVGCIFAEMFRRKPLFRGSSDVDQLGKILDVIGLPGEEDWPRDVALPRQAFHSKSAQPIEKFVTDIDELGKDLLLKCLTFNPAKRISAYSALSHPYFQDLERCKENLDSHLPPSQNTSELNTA
Sequence of Cdk6/CyclinD3 (P30281 whole entry partner): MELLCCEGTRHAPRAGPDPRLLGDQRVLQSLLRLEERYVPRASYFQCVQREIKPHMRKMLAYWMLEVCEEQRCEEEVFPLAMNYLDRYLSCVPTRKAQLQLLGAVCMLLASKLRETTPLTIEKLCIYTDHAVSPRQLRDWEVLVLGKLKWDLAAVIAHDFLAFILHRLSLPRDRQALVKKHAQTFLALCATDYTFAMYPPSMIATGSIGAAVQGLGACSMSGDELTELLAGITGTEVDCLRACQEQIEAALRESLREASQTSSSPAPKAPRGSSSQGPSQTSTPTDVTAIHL
Sequence of Cdk4/CyclinD1 (P11802 whole entry): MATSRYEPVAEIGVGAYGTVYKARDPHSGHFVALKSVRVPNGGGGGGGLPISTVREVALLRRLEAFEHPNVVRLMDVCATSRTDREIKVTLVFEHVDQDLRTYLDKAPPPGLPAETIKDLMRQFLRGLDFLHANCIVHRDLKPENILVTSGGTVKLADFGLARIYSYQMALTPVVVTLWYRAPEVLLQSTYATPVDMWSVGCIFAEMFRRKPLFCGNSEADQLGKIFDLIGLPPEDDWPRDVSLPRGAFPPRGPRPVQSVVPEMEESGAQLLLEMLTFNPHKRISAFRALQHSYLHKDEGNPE
Sequence of Cdk4/CyclinD1 (P24385 whole entry partner): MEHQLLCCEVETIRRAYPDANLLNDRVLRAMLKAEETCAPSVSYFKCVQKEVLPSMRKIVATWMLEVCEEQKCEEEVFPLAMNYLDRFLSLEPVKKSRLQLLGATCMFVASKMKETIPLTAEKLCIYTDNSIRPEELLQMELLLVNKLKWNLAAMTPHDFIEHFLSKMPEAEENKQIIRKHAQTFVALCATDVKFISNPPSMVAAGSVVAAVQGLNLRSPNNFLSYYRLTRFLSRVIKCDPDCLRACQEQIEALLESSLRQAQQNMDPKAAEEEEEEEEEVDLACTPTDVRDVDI

With `CC(C)n1c2cnccc2c2cnc(Nc3ccc(N4CCC(N(C)C)CC4)nn3)nc21` [Example 160, N-(6-(4-(Dimethylamino)-1-piperidinyl)-3-pyridazinyl)-9-(1-methylethyl)-9H-pyrido[4′,3′:4,5]pyrrolo[2,3-d]pyrimidin-2-amine], the IC50 on Cdk6/CyclinD3 turned out to be 0.0048 µM; on Cdk4/CyclinD1 it was 0.0025 µM.
Regarding `CCC(CC)n1c2cnccc2c2cnc(Nc3ccc(N4CCNCC4)cn3)nc21` [Example 161, 9-(1-Ethylpropyl)-N-(5-(1-piperazinyl)-2-pyridinyl)-9H-pyrido[4′,3′:4,5]pyrrolo[2,3-d]pyrimidin-2-amine], the IC50 at Cdk6/CyclinD3 turned out to be 0.016 µM; on Cdk4/CyclinD1 it was 0.0036 µM.
The matching figures for `CCC(CC)n1c2cnccc2c2cnc(Nc3ccc(N4CC[C@@H](O)C4)nn3)nc21` [Example 162, (3R)-1-(6-((9-(1-Ethylpropyl)-9H-pyrido[4′,3′:4,5]pyrrolo[2,3-d]pyrimidin-2-yl)-amino)-3-pyridazinyl)-3-pyrrolidinol]: 0.11 µM and 10 µM.
With `CCC(CC)n1c2cnccc2c2cnc(Nc3ccc(N4CCC(N(C)C)CC4)nn3)nc21` [Example 163, N-(6-(4-(Dimethylamino)-1-piperidinyl)-3-pyridazinyl)-9-(1-ethylpropyl)-9H-pyrido[4′,3′:4,5]pyrrolo[2,3-d]pyrimidin-2-amine], the IC50 was determined as 0.016 µM on Cdk6/CyclinD3 and 0.017 µM on Cdk4/CyclinD1.
Turning to `c1cc2c3cnc(Nc4nc(CN5CCNCC5)cs4)nc3n(C3CCCC3)c2cn1` [Example 164, 9-Cyclopentyl-N-(4-(1-piperazinylmethyl)-1,3-thiazol-2-yl)-9H-pyrido-[4′,3′:4,5]pyrrolo[2,3-d]pyrimidin-2-amine], the values for the IC50 on Cdk6/CyclinD3 and on Cdk4/CyclinD1 were 0.0062 µM and 0.0036 µM, respectively.
The matching figures for `O[C@H]1CCN(Cc2csc(Nc3ncc4c5ccncc5n(C5CCCC5)c4n3)n2)C1` [Example 165, (3S)-1-((2-((9-Cyclopentyl-9H-pyrido[4′,3′:4,5]pyrrolo[2,3-d]pyrimidin-2-yl)amino)-1,3-thiazol-4-yl)methyl)-3-pyrrolidinol]: 0.017 µM and 0.0085 µM.
The corresponding values for `c1cc(Nc2ncc3c4sncc4n(C4CCCC4)c3n2)ncc1N1CCNCC1` [Example 168, 4-Cyclopentyl-N-(5-(1-piperazinyl)-2-pyridinyl)-4H-isothiazolo[5′,4′:4,5]pyrrolo[2,3-d]pyrimidin-6-amine] are 10 µM and 10 µM.
For `CN(C)C1CCN(c2ccc(Nc3ncc4c5ccnc(F)c5n(CC5CC5)c4n3)nn2)CC1` [Example 169], the values for the IC50 on Cdk6/CyclinD3 and on Cdk4/CyclinD1 were 0.15 µM and 0.14 µM, respectively.
For `O[C@H]1CCN(Cc2csc(Nc3ncc4c5ccnc(F)c5n(C5CCCC5)c4n3)n2)C1` [Example 181, (3S)-1-((2-((9-Cyclopentyl-8-fluoro-9H-pyrido[4′,3′:4,5]pyrrolo[2,3-d]pyrimidin-2-yl)amino)-1,3-thiazol-4-yl)methyl)-3-pyrrolidinol], the results for the IC50 on Cdk6/CyclinD3 and at Cdk4/CyclinD1 were 0.026 µM and 0.015 µM, respectively.
The corresponding values for `COc1ccc2c3cnc(Nc4ccc(N5CCNCC5)cn4)nc3n(C3CCCC3)c2n1` [Example 182, 9-Cyclopentyl-7-methoxy-N-(5-(1-piperazinyl)-2-pyridinyl)-9H-pyrido[3′,2′:4,5]pyrrolo[2,3-d]pyrimidin-2-amine] are 0.016 µM and 0.113 µM.
The corresponding values for `Oc1ccc2c3cnc(Nc4ccc(N5CCNCC5)cn4)nc3n(C3CCCC3)c2n1` [Example 183, 9-Cyclopentyl-2-((5-(1-piperazinyl)-2-pyridinyl)amino)-9H-pyrido[3′,2′:4,5]pyrrolo[2,3-d]pyrimidin-7-ol] are 0.104 µM and 0.142 µM.
The corresponding values for `Cn1c(=O)ccc2c3cnc(Nc4ccc(N5CCNCC5)cn4)nc3n(C3CCCC3)c21` [Example 184, 9-Cyclopentyl-8-methyl-2-((5-(1-piperazinyl)-2-pyridinyl)amino)-8,9-dihydro-7H-pyrido[3′,2′:4,5]pyrrolo[2,3-d]pyrimidin-7-one] are 0.031 µM and 0.0086 µM.
Take `Cn1c(=O)ccc2c3cnc(Nc4ccc(N5CC[C@@H](O)C5)cn4)nc3n(C3CCCC3)c21` [Example 185, 9-Cyclopentyl-2-((5-((3R)-3-hydroxy-1-pyrrolidinyl)-2-pyridinyl)amino)-8-methyl-8,9-dihydro-7H-pyrido[3′,2′:4,5]pyrrolo[2,3-d]pyrimidin-7-one]: the 50% inhibitory concentration (IC50) was 0.149 µM at Cdk6/CyclinD3 and 0.145 µM on Cdk4/CyclinD1.
The corresponding values for `OCC1CCN(c2ccc(Nc3ncc4c5ccnc(F)c5n(C5CCCC5)c4n3)nc2)CC1` [Example 187, (1-(6-((9-Cyclopentyl-8-fluoro-9H-pyrido[4′,3′:4,5]pyrrolo[2,3-d]pyrimidin-2-yl)amino)-3-pyridinyl)-4-piperidinyl)methanol] are 0.0028 µM and 0.0029 µM.
For the compound `N#Cc1nccc2c3cnc(Nc4ccc(N5CCNCC5)cn4)nc3n(C3CCCC3)c12` [Example 188, 9-Cyclopentyl-2-((5-(1-piperazinyl)-2-pyridinyl)amino)-9H-pyrido[4′,3′:4,5]pyrrolo[2,3-d]pyrimidine-8-carbonitrile], the concentration for half-maximal inhibition (IC50) stood at 0.0134 µM on Cdk6/CyclinD3 and 0.027 µM at Cdk4/CyclinD1.
As for `CC1CN(c2ccc(Nc3ncc4c5ccnc(F)c5n(C5CCCC5)c4n3)nc2)CC(C)N1` (stereo not drawn) [Example 189, 9-Cyclopentyl-N-(5-(3,5-dimethyl-1-piperazinyl)-2-pyridinyl)-8-fluoro-9H-pyrido[4′,3′:4,5]pyrrolo[2,3-d]pyrimidin-2-amine], the IC50 on Cdk6/CyclinD3 was 0.022 µM; at Cdk4/CyclinD1 it was 0.02 µM.
On to `OCCC1CCN(c2ccc(Nc3ncc4c5ccnc(F)c5n(C5CCCC5)c4n3)nc2)CC1` [Example 190, 2-(1-(6-((9-Cyclopentyl-8-fluoro-9H-pyrido[4′,3′:4,5]pyrrolo[2,3-d]pyrimidin-2-yl)amino)-3-pyridinyl)-4-piperidinyl)ethanol], for which the 50% inhibitory concentration (IC50) is 0.0076 µM on Cdk6/CyclinD3 and 0.0064 µM at Cdk4/CyclinD1.
The matching figures for `c1cc2c3cnc(Nc4ccc(N5CCNCC5)cn4)nc3n(C3CCCC3)c2nn1` [Example 200, 9-Cyclopentyl-N-(5-(1-piperazinyl)-2-pyridinyl)-9H-pyrimido[5′,4′:4,5]pyrrolo[2,3-c]pyridazin-7-amine]: 0.013 µM and 0.036 µM.
The matching figures for `COc1cc2c3cnc(Nc4ccc(N5CCNCC5)cn4)nc3n(C3CCCC3)c2nn1` [Example 202, 9-cyclopentyl-3-methoxy-N-(5-(1-piperazinyl)-2-pyridinyl)-9H-pyrimido[5′,4′:4,5]pyrrolo[2,3-c]pyridazin-7-amine]: 0.52 µM and 0.141 µM.
The corresponding values for `CC1(C)CCC(n2c3cnccc3c3cnc(Nc4ccc(N5CCNCC5)cn4)nc32)CC1` [Example 204, 9-(4,4-dimethylcyclohexyl)-N-(5-(1-piperazinyl)-2-pyridinyl)-9H-pyrido[4′,3′:4,5]pyrrolo[2,3-d]pyrimidin-2-amine] are 0.0011 µM and 0.0035 µM.
As for `Fc1nccc2c3cnc(Nc4ccc(CN5CCNCC5)cn4)nc3n(C3CCCC3)c12` [Example 213, 9-cyclopentyl-8-fluoro-N-(5-(1-piperazinylmethyl)-2-pyridinyl)-9H-pyrido[4′,3′:4,5]pyrrolo[2,3-d]pyrimidin-2-amine], the IC50 at Cdk6/CyclinD3 was determined as 0.052 µM; on Cdk4/CyclinD1, 0.203 µM.

The term IC50 denotes the concentration at which inhibition is half-maximal.
